# Data: paper PMC3463759 (Clinical cancer research : an official journal of the …, 2012)
# Read-outs that look alike come from different tables or passages of the source.
# Legend:
# [1] = for reduction of Cmax: paclitaxel with dasatinib (Cycle 2 Day 1) vs paclitaxel alone (Cycle 1 Day 1)
# [2] = clinical; details: human, plasma, intravenous
# [3] = paclitaxel alone, Cycle 1 Day 1, N=20
# [4] = paclitaxel alone, Cycle 1 Day 1, N=20, dose-normalized to 175 mg/m^2
# [5] = paclitaxel and dasatinib, Cycle 2 Day 1, N=18
# [6] = paclitaxel and dasatinib, Cycle 2 Day 1, N=18, dose-normalized to 175 mg/m^2
# [7] = paclitaxel with dasatinib vs paclitaxel alone
structure (smiles),measurement,setting,value
CC(=O)O[C@H]1C(=O)[C@@]2(C)[C@H]([C@H](OC(=O)c3ccccc3)[C@]3(O)C[C@H](OC(=O)[C@H](O)[C@@H](NC(=O)c4ccccc4)c4ccccc4)C(C)=C1C3(C)C)[C@]1(OC(C)=O)CO[C@@H]1[C@@H](O)[C@@H]2O [6-OH paclitaxel],inter-individual variability (%CV) for exposure,[1]; in vivo,40–70%
same,"T-HALF, Mean (SD)",[1]; [3],1.26 h
same,"AUC(0-T), Geo Mean (%CV)",[1]; [4],732 (53) ng•h/mL
same,"AUC(INF), Geo Mean (%CV)",[1]; [4],771 (53) ng•h/mL
same,"Cmax, Geo Mean (%CV)",[1]; [4],349 (44) ng/mL
same,"T-HALF, Mean (SD)","[1]; paclitaxel alone, Cycle 1 Day 1, N=20, listed as 6-OH Paclitaxel",1.26 (0.75) h
same,"M/P, metabolite to parent ratio based on dose normalized AUC(INF), Mean (SD)","[1]; paclitaxel alone, N=20",0.06 (0.04)
same,"T-HALF, Mean (SD)",[1]; [5],0.94 h
same,"AUC(0-T), Geo Mean (%CV)",[1]; [6],562 (68) ng•h/mL
same,"AUC(INF), Geo Mean (%CV)",[1]; [6],615 (68) ng•h/mL
same,"Cmax, Geo Mean (%CV)",[1]; [6],260 (58) ng/mL
same,"T-HALF, Mean (SD)","[1]; paclitaxel and dasatinib, Cycle 2 Day 1, N=18, listed as 6-OH Paclitaxel",0.94 (0.47) h
same,"M/P, metabolite to parent ratio based on dose normalized AUC(INF), Mean (SD)","[1]; paclitaxel and dasatinib, N=18",0.05 (0.02)
same,reduction of Cmax,[1],25%
same,reduction of geometric mean AUC(0-T),[1]; [7],23%
same,reduction of geometric mean AUC(INF),[1]; [7],20%
same,reduction of mean T-HALF,[1]; [7],25%
CC(=O)O[C@H]1C(=O)[C@@]2(C)[C@H]([C@H](OC(=O)c3ccccc3)[C@]3(O)C[C@H](OC(=O)[C@H](O)[C@@H](NC(=O)c4ccccc4)c4ccccc4)C(C)=C1C3(C)C)[C@]1(OC(C)=O)CO[C@@H]1C[C@@H]2O [paclitaxel],"differences in mean T-HALF, MRT(INF), CLt, and Vss",[1]; paclitaxel alone vs paclitaxel in combination with dasatinib,less than 20%
same,"CLt, Mean (SD)",[1]; [3],20.9 (6.3) L/h
same,"T-HALF, Mean (SD)",[1]; [3],11.7 (1.6) h
same,"CLt, Mean (SD)",[1]; [5],24.3 (6.0) L/h
same,"T-HALF, Mean (SD)",[1]; [5],11.7 (3.8) h
same,reduction of Cmax,[1],19%
same,reduction of geometric mean AUC(0-T),[1]; [7],15%
same,reduction of geometric mean AUC(INF),[1]; [7],14%
same,MRT inf,[2],6.9 h
same,Vd,[2],163 L
same,AUC(0-inf),[2]; 175 mg/m^2,16100 ng·h/mL
same,AUC(0-t),[2]; 175 mg/m^2,15700 ng·h/mL
same,Cmax,[2]; 175 mg/m^2,4820 ng/mL
same,MRT inf,[2]; 175 mg/m^2,6.7 h
